Experimental findings from patent publication US20250353825A1, “CANNABICYCLOL DERIVATIVES AND PREPARATION METHODS THEREOF” (priority 2023, published 2025) are described below.

Common to all, as to assay type: cell-based
Data set [1] concerns GSC-3 (3#-GSC). Put plainly: MTS cell viability assay, glioblastoma stem cells GSC-3 (3#-GSC). To be noted: for IC50: GSC-3, Table 8, cancer stem cells, preferred compounds, read-out: IC50 3#-GSC; for selective anti-glioma stem cell viability: judged in words from preliminary viability screening against 3#-GSC, 293T and U251. As to the method:
(§1) Primary viability screening: (1) the synthesized compounds 3a to 13d were respectively dissolved in DMSO to prepare a 40 μg/mL cannabicyclol and cannabicyclol derivative solutions.
(§2) (2) A control group: a 200 μL DMSO solvent.
(§3) (3) The solutions of compounds 3a to 13d were diluted in a twofold gradient to obtain cannabicyclol and cannabicyclol derivative solutions at concentrations of 40 μg/mL, 20 μg/mL, 10 μg/mL, 5 μg/mL, 2.5 μg/mL, 1.25 μg/mL, and 0.625 μg/mL, and 0.3125 μg/mL, respectively.
(§4) (4) Three glioblastoma stem cells (GSC-3, GSC-12, and GSC-18), three pancreatic cancer cell-derived stem cells (PANC-1-CSC, BXPC-3-CSC, and ASPC1-CSC), three liver cancer cell-derived stem cells (HepG2-CSC, MHCC97H-CSC, and SMMC7721-CSC), HEK-293T cells, 16 tumor cells (U251, U87, T98G, PANC1, BXPC3, ASPC1, HepG2, MHCC97H, SMMC7721, PC3, SKOV3, MDA-MB231, A549, HCT116, HEC-1B, MKN28), and differentiated glioblastoma stem cells (GSC-3diff and GSC-12diff) derived from GSC-3 and GSC-12 (all of the cells were provided by the Laboratory of Tumor Animal Model Preparation and Application Research, West China Hospital, Sichuan University) were inoculated into a 96-well plate at a concentration of 2×10^4 cells/well, and 100 μL of culture medium was then added to each well;
(§5) (5) 2) HEK-293T, GSC-3diff, GSC-12diff, and the 16 tumor cells were added with DMEM, 10% FBS, and 1% double antibody culture medium. Cancer stem cells (CSCs) were added with serum-free stem cell medium consisting of DMEM/F12, EGF (20 ng/mL), bFGF (20 ng/mL), B27 (1×), and 1% double antibody culture medium.
(§6) (6) Inoculated cells were put into a cell culture incubator for 24 hours, and after the cells were well adhered to the wall, the culture medium in the 96-well plate was discarded.
(§7) (7) 200 μL cannabicyclol and cannabicyclol derivatives solutions at different concentrations were added to the cultured cells.
(§8) (8) The experiment was set up with 3 replicates.
(§9) (9) The 96-well plate was placed in a cell culture incubator, and incubation was continued at 37° C. and 5% CO2 for 72 hours. Then, 100 μL of cannabicyclol and cannabicyclol derivative solution per well was discarded (100 μL of DMSO solvent was discarded for the control group), and 20 μL of LMTS (CellTiter AQueous Non-Radioactive Cell Proliferation Assay, #G3581) was mixed and continued to be placed in the cell incubator for 2 hours of incubation.
(§10) (10) The absorbance value at 490 nm was measured on an enzyme labeling apparatus, and the IC50 value was calculated.

Data set [2] relates to U251. The data set can be described thus: MTS cell viability assay, U251. As to conditions: for IC50: Homo sapiens, U-251, Table 8, tumor cells, preferred compounds, read-out: IC50 U251. As for the experimental part: as §1, §2, §3, §4, §5, §6, §7, §8, §9, §10
In general terms: Tetrazolium dyes change colour on reduction, which living cells bring about.

Data set [3] is described as follows: MTS cell viability assay, HEK-293T (293T) normal cells. To be noted: human. As to the method:
as §1, §2, §3, §4, §5, §6, §7, §8, §9, §10

Data set [4] concerns HEK-293T. The data set is described as above. As to conditions: Homo sapiens, HEK-293T; Table 8, normal cells, preferred compounds; read-out: IC50 293T. As for the experimental part:
as §1, §2, §3, §4, §5, §6, §7, §8, §9, §10

The mark [5] stands for this setting: primary viability screening, 72 hours, MTS, test concentration not stated.
[6] abbreviates: HEK-293T (293T) normal cells, primary viability screening, 72 hours, MTS, test concentration not stated, read-out: Cell viability in 293T (%).

Values after ≈ are worked out from the molar mass of the structure shown. Like-named read-outs stand apart in the source and are kept apart here.

In the case of `CC12CCC3C1C(c1c(O)cc(-c4ccsc4)cc1O2)C3(C)C` (stereo not drawn) [Compound 3t], in data set [1] (72 h), the “Cell viability in 3#-GSC (%)” value is 50%. Further, the IC50 (commonly the point on the concentration scale where inhibition reaches its midpoint) is 3 µg/mL (≈ 9.17 µM) in data set [1], 14 µg/mL (≈ 42.8 µM) in data set [2] and 16.4 µg/mL (≈ 50.2 µM) in data set [4]. Besides, in data set [1], the “selective anti-glioma stem cell viability” value is given as “weak selective anti-glioma stem cell viability”. Further, the “Cell viability in U251 (%)” value in data set [2] (human, 72 h) was 98%. For the same compound, the viability (as a rule, a per cent measure of how many cells are alive, often set against a control) at 72 h in data set [3] is no less than 100%.

Consider `CCCCCc1cc(OC(=O)C(C)CC)c2c(c1)OC1(C)CCC3C1C2C3(C)C` (stereo not drawn) [Compound 9a], for which the IC50 in data set [1] was 4.32 µg/mL (≈ 10.8 µM); in data set [2], greater than 40 µg/mL; in data set [4] it was greater than 40 µg/mL. For the same compound, the “Cell viability in 3#-GSC (%)” value in data set [1] (setting [5]) is listed as 52%. Moreover, in data set [2] (setting [5]), the “Cell viability in U251 (%)” value is given as no less than 100%. Also, in data set [3] (setting [6]), the viability at 72 h is no less than 100%.

Take `CCCCCc1cc(OC(=O)CC)c2c(c1)OC1(C)CCC3C1C2C3(C)C` (stereo not drawn) [Compound 9c]: the IC50 in data set [1] was 9.32 µg/mL (≈ 25.2 µM); in data set [2], 24.7 µg/mL (≈ 66.7 µM); in data set [4], greater than 40 µg/mL. Also, the “selective anti-glioma stem cell viability” value in data set [1] was “both the viability and selectivity were maintained”. The “Cell viability in 3#-GSC (%)” value in data set [1] (setting [5]) turned out to be 28%. Also, in data set [2] (setting [5]), the “Cell viability in U251 (%)” value is no less than 100%. Besides, in data set [3] (setting [6]), the viability at 72 h is no less than 100%.

Consider `CCCCCc1cc(OC(=O)/C=C/c2ccc(OC)cc2)c2c(c1)OC1(C)CCC3C1C2C3(C)C` (stereo not drawn) [Compound 9h], for which the “Cell viability in 3#-GSC (%)” value in data set [1] (setting [5]) is 90%. The “Cell viability in U251 (%)” value in data set [2] (setting [5]) is recorded as no less than 100%. In addition, in data set [3] (setting [6]), the viability at 72 h was no less than 100%.

Turning to `CCCCCc1cc(OC(=O)c2ccncc2)c2c(c1)OC1(C)CCC3C1C2C3(C)C` (stereo not drawn) [Compound 9i], in data set [1] (setting [5]), the “Cell viability in 3#-GSC (%)” value was 91%. In addition, the “Cell viability in U251 (%)” value in data set [2] (setting [5]) was found to be 88%. Also, in data set [3] (setting [6]), the viability at 72 h was 91%.

With `CCCCCc1cc(OC(=O)c2ccco2)c2c(c1)OC1(C)CCC3C1C2C3(C)C` (stereo not drawn) [Compound 9j], the “Cell viability in 3#-GSC (%)” value in data set [1] (setting [5]) is reported as no less than 100%. In data set [2] (setting [5]), the “Cell viability in U251 (%)” value is no less than 100%. The viability at 72 h in data set [3] (setting [6]) is no less than 100%.

On to `CCCCCc1cc(OC(=O)CN2CCOCC2)c2c(c1)OC1(C)CCC3C1C2C3(C)C` (stereo not drawn) [Compound 9k], for which the figures for the half-inhibitory concentration (IC50) in data set [1], in data set [2] and in data set [4] were 5.37 µg/mL (≈ 12.2 µM), greater than 40 µg/mL and greater than 40 µg/mL, respectively. In addition, the “Cell viability in 3#-GSC (%)” value in data set [1] (setting [5]) amounted to 43%. Also, the “Cell viability in U251 (%)” value in data set [2] (setting [5]) is no less than 100%. Further, in data set [3] (setting [6]), the viability at 72 h is no less than 100%.

For `CCCCCc1cc(OC(=O)CCN2CCOCC2)c2c(c1)OC1(C)CCC3C1C2C3(C)C` (stereo not drawn) [Compound 9l], the IC50 is 2.9 µg/mL (≈ 6.37 µM) in data set [1], 24.7 µg/mL (≈ 54.3 µM) in data set [2] and greater than 40 µg/mL in data set [4]. Besides, in data set [1] (setting [5]), the “Cell viability in 3#-GSC (%)” value amounted to 32%. For the same compound, the “Cell viability in U251 (%)” value in data set [2] (setting [5]) turned out to be 90%. For the same compound, in data set [3] (setting [6]), the viability at 72 h turned out to be 93%.

As to `CCCCCc1cc(OC(=O)CN(C)C)c2c(c1)OC1(C)CCC3C1C2C3(C)C` (stereo not drawn) [Compound 9m], the IC50 was 5.44 µg/mL (≈ 13.6 µM) in data set [1], greater than 40 µg/mL in data set [2] and 22.9 µg/mL (≈ 57.2 µM) in data set [4]. Also, the “Cell viability in 3#-GSC (%)” value in data set [1] (setting [5]) was determined as 42%. Also, the “Cell viability in U251 (%)” value in data set [2] (setting [5]) is given as no less than 100%. Further, the viability at 72 h in data set [3] (setting [6]) was no less than 100%.

In the case of `CCCCCc1cc(OC(=O)CCN(C)C)c2c(c1)OC1(C)CCC3C1C2C3(C)C` (stereo not drawn) [Compound 9n], the IC50 in data set [1] is 7.79 µg/mL (≈ 18.8 µM); in data set [2], 33.4 µg/mL (≈ 80.9 µM); in data set [4] it was 35.2 µg/mL (≈ 85 µM). In addition, the “Cell viability in 3#-GSC (%)” value in data set [1] (setting [5]) worked out at 32%. The “Cell viability in U251 (%)” value in data set [2] (setting [5]) is on record as 89%. Further, in data set [3] (setting [6]), the viability at 72 h was no less than 100%.

As for `CCCCCc1cc(OC(=O)CCCC[P+](c2ccccc2)(c2ccccc2)c2ccccc2)c2c(c1)OC1(C)CCC3C1C2C3(C)C` (stereo not drawn) [Compound 9s], the “Cell viability in 3#-GSC (%)” value in data set [1] (72 h) was found to be 40%. In data set [2] (human, 72 h), the “Cell viability in U251 (%)” value is 17%. In addition, in data set [3], the viability at 72 h stood at 21%.

In the case of `CCCCCc1cc(OC(=O)CCCCOc2cc(=O)oc3ccccc23)c2c(c1)OC1(C)CCC3C1C2C3(C)C` (stereo not drawn) [Compound 9t], the “Cell viability in 3#-GSC (%)” value in data set [1] (72 h) was no less than 100%. The “Cell viability in U251 (%)” value in data set [2] (human, 72 h) is listed as no less than 100%. This compound came in with a viability at 72 h in data set [3] of no less than 100%.

For `CCCCCc1cc2c(c(-c3ccccc3)c1)C1C3C(CCC3(C)O2)C1(C)C` (stereo not drawn) [Compound 13b], the “Cell viability in 3#-GSC (%)” value in data set [1] (72 h) came to 50%. In addition, the results for the half-maximal inhibitory concentration (IC50) in data set [1], in data set [2] and in data set [4] were 4.73 µg/mL (≈ 12.6 µM), greater than 40 µg/mL and greater than 40 µg/mL, respectively. In addition, the “selective anti-glioma stem cell viability” value in data set [1] is “both the viability and selectivity were significantly reduced”. For the same compound, the “Cell viability in U251 (%)” value in data set [2] (human, 72 h) was no less than 100%. In data set [3], this compound showed a viability at 72 h of 75%.
